Marks after values point to notes of the source that are not given here.
Legend:
Assay type in all cases: in vivo
Conditions in all cases: 100 = 100% disease control
[1] = system: Phakopsora pachyrhizi (the causal agent of Asian soybean rust); assay: Test A: preventive spray on soybean seedlings, visual disease rating (100 = 100% control; * 50 ppm, ** 10 ppm, *** 250 ppm)
In short: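 Preventive test: one day after spraying compound (acetone/water suspension, 250 ppm PEG400), seedlings received rust spore inoculum, 24 h in saturated air then 8 days in growth chamber, both at 22 °C. Disease control scored visually, 100 = complete, 0 = none, relative to untreated controls.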

[2] = system: Puccinia recondita f. sp. tritici (the causal agent of wheat leaf rust); assay: Test B: preventive spray on wheat seedlings, disease rating (100 = 100% control; * 50 ppm, ** 10 ppm, *** 250 ppm)
In short: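 Preventive test: Puccinia recondita f. sp. tritici spores were inoculated one day after run-off spraying of wheat seedlings with test suspension (acetone/water 50/50, 250 ppm PEG400). After 24 h in saturated air and 6 days in a growth chamber, both at 20° C, control was scored 0–100 versus untreated plants.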

[3] = system: Uncinula necator (the causal agent of grape powdery mildew); assay: Test C: preventive spray on grape seedlings, disease rating (100 = 100% control; * 50 ppm, ** 10 ppm, *** 250 ppm)
Excerpt: General protocol for preparing test suspensions for Tests A-E: the test compounds were first dissolved in acetone in an amount equal to 3% of the final volume and then suspended at the desired concentration (in ppm) in acetone and purified water (50/50 mix by volume) containing 250 ppm of the surfactant […] (polyhydric alcohol esters). The resulting test suspensions were then used in Tests A-E.
The test solution was sprayed to the point of run-off on grape seedlings. The following day the seedlings were inoculated with a spore suspension of Uncinula necator (the causal agent of grape powdery mildew) and incubated in a growth chamber at 20° C. for 12 days, after which time disease ratings were made.
Results for Tests A-E are given in Table A. In the Table, a rating of 100 indicates 100% disease control and a rating of 0 indicates no disease control (relative to the controls). An asterisk “*” or a double asterisk “**” or a triple asterisk “***” next to the rating value indicates a 50 ppm, 10 ppm and 250 ppm test suspension was used, respectively. A dash (-) indicates the compound was not tested.

[4] = system: Zymoseptoria tritici (the causal agent of wheat leaf blotch); assay: Test D: preventive spray on wheat seedlings, disease rating (100 = 100% control; * 50 ppm, ** 10 ppm, *** 250 ppm)
In short: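 Compounds first dissolved in acetone (3% of final volume), then suspended in 50/50 acetone/water with 250 ppm PEG400 and sprayed to run-off on wheat seedlings; Z. tritici spores inoculated next day. Incubated saturated at 24° C. 48 h, then 20° C. 17 days; disease control rated 0–100 versus controls.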

[5] = system: Blumeria graminis f. sp. tritici (the causal agent of wheat powdery mildew); assay: Test E: preventive spray on wheat seedlings, visual disease rating (100 = 100% control; * 50 ppm, ** 10 ppm, *** 250 ppm)
In short: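 Test suspension (3% acetone, acetone/water 50/50, 250 ppm PEG400) sprayed to run-off on wheat seedlings; inoculated next day with powdery mildew spore dust and kept 8 days at 20 °C. Visual rating, 100 = full and 0 = no control relative to untreated.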

[6] = 50 ppm test suspension, 0 = no control
[7] = 250 ppm test suspension, 0 = no control
[8] = 10 ppm test suspension, soybean seedlings
[9] = 10 ppm test suspension, wheat seedlings
[10] = 250 ppm test suspension, grape seedlings
[11] = 250 ppm test suspension, wheat seedlings
[12] = 250 ppm test suspension, soybean seedlings
[13] = 50 ppm test suspension, soybean seedlings
[14] = 50 ppm test suspension, wheat seedlings
[15] = 50 ppm test suspension, grape seedlings

SMILES | Test A disease control rating [1, 8] [%] | Test B disease control rating [2, 9] [%] | Test C disease control rating [3, 10] | Test D disease control rating [4, 11] | Test E disease control rating [5, 11] | further results
CCOC(=O)c1cnn(Cc2ccc(OCC(O)(O)C(F)(F)F)cc2F)c1 [Compound 376] |  |  |  |  |  | Test A disease control rating [1, 6]: 100%; Test B disease control rating [2, 6]: 92%; Test C disease control rating [3, 6]: 36%; Test D disease control rating [4, 7]: 98*** %; Test E disease control rating [5, 7]: 99*** %
CCOC(=O)c1cnn(Cc2c(F)c(F)c(OCC(O)(O)C(F)(F)F)c(F)c2F)c1 [Compound 465] |  |  |  |  |  | Test A disease control rating [1, 6]: 100%; Test B disease control rating [2, 6]: 100%; Test C disease control rating [3, 7]: 73*** %; Test D disease control rating [4, 7]: 59*** %; Test E disease control rating [5, 7]: 91*** %
C#CCOC(=O)c1cnn(Cc2ccc(OCC(O)(O)C(F)(F)F)cc2)c1 [compound 44] | 97 | 85 | 16*** % | 98*** % | 91*** % | 
CCOC(=O)c1cnn(Cc2ccc(C(O)CC(O)(O)C(F)(F)F)cc2)c1 (stereo not shown) [compound 51] | 0 | 0 | 81*** % | 3*** % | 0*** % | 
CCOC(=O)c1cnn(Cc2ccc(O/C=C(\OC(C)C)C(F)(F)F)cc2)c1 [compound 57] |  |  | 64*** % | 28% | 95*** % | Test A disease control rating [1, 12]: 100%; Test B disease control rating [2, 11]: 0%
O=C(NCC(F)(F)F)c1csc(Cc2ccc(OCC3(C(F)(F)F)OCCO3)cc2)n1 [compound 70] |  |  | 86% | 91% | 83% | Test A disease control rating [1, 12]: 100%; Test B disease control rating [2, 11]: 100%
CC(=O)c1ccc(OCC(O)(O)C(F)(F)F)cc1 [compound 80] |  |  |  | 96*** % | 99*** % | Test A disease control rating [1, 13]: 99%; Test B disease control rating [2, 14]: 100%; Test C disease control rating [3, 15]: 0%
N#Cc1ccc(OCC2(C(F)(F)F)OCCO2)cc1 [compound 98] |  |  | 31% | 77% | 0% | Test A disease control rating [1, 12]: 100%; Test B disease control rating [2, 11]: 100%
CCOC(=O)c1cnn(Cc2ccc(SCC3(C(F)(F)F)OCCO3)cc2)c1 [compound 115] |  |  | 58% | 19% | 56% | Test A disease control rating [1, 12]: 0%; Test B disease control rating [2, 11]: 0%
CCO/C(=C\Oc1ccc(Cn2cc(C(=O)NC(C)C)cn2)cc1)C(F)(F)F [compound 118] |  |  | 77*** % | 13*** % | 76*** % | Test A disease control rating [1, 13]: 100%; Test B disease control rating [2, 14]: 0%
CCOC(=O)c1cnnn1Cc1ccc(O/C=C(\OCC)C(F)(F)F)cc1 [compound 120] |  |  |  |  |  | Test A disease control rating [1, 13]: 100%; Test B disease control rating [2, 14]: 0%; Test C disease control rating [3, 15]: 23%; Test D disease control rating [4, 14]: 17%; Test E disease control rating [5, 14]: 98%
CCO/C(=C\Oc1ccc(Cn2cc(C(=O)OC)cn2)cc1)C(F)(F)F [compound 138] | 100 | 0 |  | 31*** % | 99*** % | Test C disease control rating [3, 15]: 100* %
N#Cc1ccc(OCC(O)(O)C(F)(F)F)cc1 [compound 142] | 92 | 100 | 19*** % | 100*** % | 99*** % | 
CCO/C(=C\Oc1ccc(Cn2cc(Br)cn2)cc1)C(F)(F)F [compound 183] | 0 | 0 | 70*** % | 66*** % | 0*** % | 
C#CCOC(=O)c1cnn(Cc2ccc(O/C=C(\OCC)C(F)(F)F)cc2)c1 [compound 185] | 100 | 0 |  | 0*** % | 95*** % | Test C disease control rating [3, 15]: 100* %
N#Cc1cnn(Cc2ccc(OCC(O)(O)C(F)(F)F)cc2)c1 [compound 206] |  |  | 34*** % | 93*** % | 93*** % | Test A disease control rating [1, 13]: 100%; Test B disease control rating [2, 14]: 98%
CCO/C(=C\Oc1ccc(Cn2cc(C(=O)OCC(C)=O)cn2)cc1)C(F)(F)F [compound 216] | 100 | 0 | 20*** % | 37*** % | 87*** % | 
CCCOC(=O)c1cnn(Cc2ccc(O/C=C(\OCC)C(F)(F)F)cc2)c1 [compound 217] | 100 | 0 | 75*** % | 23*** % | 96*** % | 
CCO/C(=C\Oc1ccc(Cn2cc(C(=O)OCC(C)C)cn2)cc1)C(F)(F)F [compound 219] | 100 | 0 | 92*** % | 0*** % | 83*** % | 
CCO/C(=C\Oc1ccc(Cn2cc(C(=O)OCC3CC3)cn2)cc1)C(F)(F)F [compound 220] | 100 | 0 | 85*** % | 28*** % | 92*** % | 
CCO/C(=C\Oc1ccc(Cn2cc(C(=O)OCCOC)cn2)cc1)C(F)(F)F [compound 222] | 100 | 0 | 38*** % | 17*** % | 90*** % | 
C=C(C)COC(=O)c1cnn(Cc2ccc(O/C=C(\OCC)C(F)(F)F)cc2)c1 [compound 242] | 100 | 0 | 87*** % | 27*** % | 69*** % | 
CC#CCOC(=O)c1cnn(Cc2ccc(O/C=C(\OCC)C(F)(F)F)cc2)c1 [compound 243] | 100 | 0 | 29*** % | 0*** % | 56*** % | 
CCO/C(=C\Oc1ccc(Cn2cc(C(=O)OCCC#N)cn2)cc1)C(F)(F)F [compound 245] | 100 | 0 | 24*** % | 18*** % | 76*** % | 
C=CCOC(=O)c1cnn(Cc2ccc(O/C=C(\OCC)C(F)(F)F)cc2)c1 [compound 246] | 100 | 0 | 85*** % | 12*** % | 90*** % | 
O=C(NCC1CC1)c1cnc(Cc2ccc(OCC(O)(O)C(F)(F)F)cc2)o1 [compound 247] | 13 | 0 | 21*** % | 79*** % | 21*** % | 
O=C(NCC1CC1)c1cnc(Cc2ccc(OCC3(C(F)(F)F)OCCO3)cc2)o1 [compound 248] | 71 | 0 | 62*** % | 93*** % | 89*** % | 
CCO/C(=C\Oc1cccc(Cn2cc(C(=O)NC)cn2)c1)C(F)(F)F [compound 403] |  |  |  |  |  | Test A disease control rating [1, 6]: 54%; Test C disease control rating [3, 7]: 74*** %; Test D disease control rating [4, 7]: 17*** %; Test E disease control rating [5, 7]: 0*** %

Source: patent US20240122180A1, “FUNGICIDAL HALOMETHYL KETONES AND HYDRATES AND THEIR MIXTURES” (FMC Corporation, priority 2020, published 2024)
